Assay in all cases: ≥ marks a high value that may be exact or a test limit, other limits are often not marked, values filed in µg/mL are converted to µM
Test [1] deals with Escherichia coli NEB5alpha.
Test [2] deals with Bacillus subtilis ATCC 6051.
Test [3] deals with Pseudomonas aeruginosa ATCC 27853.
A further test deals with Escherichia coli K-12.
In test [4] the test system is Enterococcus faecium ATCC 700221.
For test [5], the system named is Staphylococcus aureus ATCC 33591.
Test [6] concerns Escherichia coli ATCC 25922.
Test [7] relates to Candida albicans ATCC 90028.
Test [8] has as its system Escherichia coli ATCC 8739.
In test [9] the test system is Staphylococcus aureus ATCC 6538.
Test [10] concerns Staphylococcus aureus ATCC 43300.
Test [11] relates to Staphylococcus aureus USA 300.
Test [12] relates to Pseudomonas aeruginosa PAO1.
For a further test, the system named is Klebsiella pneumoniae.
The test system of test [13] is Staphylococcus aureus NCTC 8325-4.
The subject of test [14] is Pseudomonas aeruginosa KCTC 1637.
The test system of test [15] is Bacillus subtilis KCTC 3068.
Test [16] relates to Staphylococcus epidermidis KCTC 1917.
Test [17] deals with Salmonella typhimurium KCTC 1926.
Test [18] relates to Staphylococcus aureus KCTC 1621.
Test [19] has as its system Escherichia coli KCTC 1682.

Converted amounts (≈) assume the structure as drawn. Some results are limits rather than exact numbers.

A word on the MIC: it is the least concentration at which growth counts as inhibited. Turning to `NCCCC[C@H](NC(=O)[C@H](CCC(=O)O)NC(=O)[C@H](CC(=O)O)NC(=O)[C@H](CCC(=O)O)NC(=O)[C@H](CC(=O)O)NC(=O)[C@H](CCC(=O)O)NC(=O)[C@@H](N)CC(=O)O)C(=O)N[C@@H](CCCN=C(N)N)C(=O)N[C@@H](CCC(N)=O)C(=O)N1CCC[C@H]1C(=O)N[C@@H](Cc1cnc[nH]1)C(=O)O` [DEDEDEKRQPH], the values for the MIC in test [1] and in [2] were at least 1000 µM and at least 500 µM, respectively.

With `CC[C@H](C)[C@H](NC(=O)[C@H](CCCCN)NC(=O)[C@H](CCCCN)NC(=O)[C@H](CC(C)C)NC(=O)[C@H](C)NC(=O)CNC(=O)[C@@H](NC(=O)[C@H](C)NC(=O)[C@H](CCCCN)NC(=O)[C@@H]1CCCN1C(=O)[C@H](CC(C)C)NC(=O)[C@H](CC(C)C)NC(=O)[C@H](CCCCN)NC(=O)[C@H](Cc1ccccc1)NC(=O)[C@H](Cc1ccccc1)NC(=O)[C@@H](N)Cc1ccccc1)[C@@H](C)CC)C(=O)O` [FFFKLLPKAIGALKKI], the MIC in test [3] is 64 µM (≈ 117 µg/mL); in the test on Escherichia coli K-12 it was at least 128 µM.

Take `CC[C@H](C)[C@H](NC(=O)[C@H](CCCCN)NC(=O)[C@H](CCCCN)NC(=O)[C@H](CC(C)C)NC(=O)[C@H](CC(C)C)NC(=O)[C@H](CCCCN)NC(=O)[C@H](CCCCN)NC(=O)[C@@H](NC(=O)[C@H](CCCN=C(N)N)NC(=O)[C@H](CCCCN)NC(=O)[C@H](CC(C)C)NC(=O)[C@H](CC(C)C)NC(=O)CN)[C@@H](C)CC)C(=O)N[C@@H](CCCCN)C(=O)N[C@@H](CCCCN)C(=O)N[C@@H](CC(C)C)C(=O)N[C@@H](CC(C)C)C(N)=O` [GLLKRIKKLLKKIKKLL]: the minimal inhibitory concentration (MIC) was determined as 6.3 µM (≈ 12.8 µg/mL) in [4], 12.5 µM (≈ 25.4 µg/mL) in [5], 12.5 µM (≈ 25.4 µg/mL) in test [3] and 12.5 µM (≈ 25.4 µg/mL) in test [6].

Consider `CC[C@H](C)[C@H](NC(=O)[C@H](CCCCN)NC(=O)[C@@H](NC(=O)[C@H](CO)NC(=O)[C@H](CC(N)=O)NC(=O)[C@H](Cc1c[nH]c2ccccc12)NC(=O)[C@H](CC(C)C)NC(=O)CN)[C@@H](C)CC)C(=O)N[C@@H](C)C(=O)NCC(=O)N[C@@H](CCCCN)C(=O)N[C@@H](CCCCN)C(=O)N[C@@H](CC(C)C)C(=O)N[C@@H](Cc1ccccc1)C(=O)N[C@H](C(=O)N[C@@H](CC(N)=O)C(=O)N[C@H](C(=O)N[C@@H](CC(C)C)C(=O)N[C@@H](CC(=O)O)C(=O)N[C@@H](CCCCN)C(=O)N[C@H](C(=O)N[C@@H](CCCN=C(N)N)C(=O)N[C@@H](CO)C(=O)N[C@@H](CCCCN)C(=O)N[C@H](C(=O)N[C@@H](C)C(=O)NCC(=O)NCC(=O)N[C@@H](CO)C(=O)O)C(C)C)[C@@H](C)CC)C(C)C)C(C)C` [GLWNSIKIAGKKLFVNVLDKIRSKVAGGS], for which the MIC in test [7] was at least 100 µM; in test [8] it was 3.1 µM (≈ 9.61 µg/mL); in test [9], 6.3 µM (≈ 19.5 µg/mL); in test [10] it was 25 µM (≈ 77.5 µg/mL).

Regarding `CC[C@H](C)[C@H](NC(=O)[C@H](Cc1cnc[nH]1)NC(=O)[C@H](CCCCN)NC(=O)[C@@H](NC(=O)[C@@H](NC(=O)[C@H](CC(=O)O)NC(=O)[C@H](Cc1ccccc1)NC(=O)[C@H](Cc1c[nH]c2ccccc12)NC(=O)CN)C(C)C)C(C)C)C(=O)N[C@@H](C)C(=O)N[C@@H](CCCCN)C(=O)N[C@@H](CCCNC(=N)N)C(=O)N[C@@H](Cc1ccccc1)C(N)=O` [GWFDVVKHIAKRF], the MIC is 12.5 µM (≈ 20 µg/mL) in the test with Escherichia coli K-12 and at least 50 µM in test [11].

Regarding `CC[C@H](C)[C@H](NC(=O)[C@@H](N)Cc1cnc[nH]1)C(=O)N[C@@H](CCC(N)=O)C(=O)N[C@@H](CCCCN)C(=O)N[C@@H](CCC(=O)O)C(=O)N[C@@H](CC(=O)O)C(=O)N[C@H](C(=O)N1CCC[C@H]1C(=O)N[C@@H](CO)C(=O)N[C@@H](CCC(=O)O)C(=O)N[C@@H](CCCN=C(N)N)C(=O)N[C@@H](Cc1ccc(O)cc1)C(=O)N[C@@H](CC(C)C)C(=O)NCC(=O)N[C@@H](Cc1ccc(O)cc1)C(=O)N[C@@H](CC(C)C)C(=O)N[C@@H](CCC(=O)O)C(=O)N[C@@H](CCC(N)=O)C(=O)N[C@@H](CC(C)C)C(=O)N[C@@H](CC(C)C)C(=O)N[C@@H](CCCN=C(N)N)C(=O)N[C@@H](CC(C)C)C(=O)N[C@@H](CCCCN)C(=O)O)C(C)C` [HIQKEDVPSERYLGYLEQLLRLK], the figures for the MIC in test [1], in [6] and in test [2] were at least 292 µM, 583 µM (≈ 1650 µg/mL) and at least 292 µM, respectively.

For the compound `CC[C@H](C)[C@H](N)C(=O)N[C@@H](CCCCN)C(=O)N[C@@H](CCCCN)C(=O)N[C@H](C(=O)N[C@H](C(=O)N[C@@H](CCCCN)C(=O)N[C@@H](CCCCN)C(=O)N[C@H](C(=O)N[C@H](C(=O)N[C@@H](CCCCN)C(=O)N[C@@H](CCCCN)C(=O)N[C@H](C(N)=O)[C@@H](C)CC)[C@@H](C)CC)[C@@H](C)CC)[C@@H](C)CC)[C@@H](C)CC` [IKKIIKKIIKKI], the MIC in the test with Escherichia coli K-12 is 15.6 µM (≈ 22.9 µg/mL); in test [12] it was 15.6 µM (≈ 22.9 µg/mL); in the test with Klebsiella pneumoniae, over 500 µM; in test [13], at least 250 µM.

With `CC[C@H](C)[C@H](NC(=O)[C@H](CCCN=C(N)N)NC(=O)[C@H](CCCCN)NC(=O)[C@H](CCCN=C(N)N)NC(=O)[C@@H](NC(=O)[C@H](CCCN=C(N)N)NC(=O)[C@@H](N)CCCCN)[C@@H](C)CC)C(=O)N[C@@H](CCCCN)C(=O)N[C@@H](CCCCN)C(=O)N[C@@H](Cc1c[nH]c2ccccc12)C(=O)N[C@@H](CC(C)C)C(=O)N[C@@H](CCCN=C(N)N)C(N)=O` [KRIRKRIKKWLR], the MIC is 4 µM (≈ 6.72 µg/mL) in test [14]; 2 µM (≈ 3.36 µg/mL) in [15]; 1 µM (≈ 1.68 µg/mL) in test [16]; 2 µM (≈ 3.36 µg/mL) in test [17]; 4 µM (≈ 6.72 µg/mL) in [18]; 2 µM (≈ 3.36 µg/mL) in test [19].

In the case of `CC[C@H](C)[C@H](NC(=O)[C@H](Cc1c[nH]c2ccccc12)NC(=O)[C@@H]1CCCN1C(=O)[C@H](CCCCN)NC(=O)[C@H](CCSC)NC(=O)[C@H](C)NC(=O)[C@H](CCCCN)NC(=O)[C@H](CCC(N)=O)NC(=O)[C@H](Cc1cnc[nH]1)NC(=O)[C@H](CCC(N)=O)NC(=O)[C@H](Cc1ccc(O)cc1)NC(=O)[C@@H](NC(=O)[C@@H](N)[C@@H](C)O)C(C)C)C(=O)N[C@@H](CCC(N)=O)C(=O)N1CCC[C@H]1C(=O)N[C@@H](CCCCN)C(=O)N[C@H](C(=O)N[C@@H](CCCCN)C(=O)N[C@H](C(=O)N[C@H](C(=O)N1CCC[C@H]1C(=O)N[C@@H](Cc1ccc(O)cc1)C(=O)N[C@H](C(=O)N[C@@H](CCCN=C(N)N)C(=O)N[C@@H](Cc1ccc(O)cc1)C(=O)N[C@@H](CC(C)C)C(=O)O)C(C)C)[C@@H](C)CC)C(C)C)[C@@H](C)O` [TVYQHQKAMKPWIQPKTKVIPYVRYL], the results for the MIC in test [1], in test [6] and in [2] were 21.4 µM (≈ 68.8 µg/mL), 171 µM (≈ 550 µg/mL) and 2.67 µM (≈ 8.6 µg/mL), respectively.

In test [1], `CC[C@H](C)[C@H](NC(=O)[C@@H]1CCCN1C(=O)[C@H](CCSC)NC(=O)[C@H](CC(=O)O)NC(=O)[C@H](CCCN=C(N)N)NC(=O)[C@H](CCC(N)=O)NC(=O)[C@@H]1CCCN1C(=O)[C@H](Cc1ccc(O)cc1)NC(=O)[C@@H]1CCCN1C(=O)[C@@H](N)C(C)C)C(=O)N[C@@H](CCC(N)=O)C(=O)N[C@@H](C)C(=O)N[C@@H](Cc1ccccc1)C(=O)N[C@@H](CC(C)C)C(=O)O` [VPYPQRDMPIQAFL] registered an MIC of at least 493 µM.

With `CC(C)C[C@H](NC(=O)[C@H](CC(C)C)NC(=O)[C@H](CCC(N)=O)NC(=O)[C@H](CCC(=O)O)NC(=O)[C@H](CC(C)C)NC(=O)[C@@H](N)Cc1ccc(O)cc1)C(=O)N[C@@H](CCCN=C(N)N)C(=O)O` [YLEQLLR], the results for the MIC in test [1], in [6] and in test [2] were at least 241 µM, 40.1 µM (≈ 37.5 µg/mL) and at least 53.5 µM, respectively.

Values taken from DBAASP.
